The values that follow come from patent US7267953B2, “Method for identification of modulators of pre-adipocyte differentiation” (AstraZeneca AB, priority 2001, dated 2007).

One test deals with 3T3-L1 preadipocytes. The experiment in a line: Adipocyte differentiation of retrovirus infected 3T3-L1 preadipocytes, Oil Red O staining. In kind it is cell-based, mouse. To be noted: vector or O/E-1 infected 3T3-L1; 0.5 μM in combination with dexamethasone (1 μM); stained at day 3, 4 and 7. The text has this: The fibroblastic 3T3-L1 preadipocyte cells have the capability to differentiate to adipocytes when given the proper hormonal stimulation, usually a combination of dexamethasone, insulin and isobutylmethylxanthine, as opposed to NIH/3T3 where overexpression of adipocyte differentiating factors is necessary to get adipocyte development. Untransformed mouse embryonic fibroblasts (MEF) can also be forced to adipocyte differentiation using the same adipogenic factors; the efficiency is however much lower than with 3T3-L1. […] Stable clones were selected 2-3 days using puromycin (2 μg/ml) and surviving cells were grown to confluence. 3T3-L1 cells differentiate to adipocytes at high rate when all adipogenic inducers are present and this could make it difficult discriminate the effect of an additional adipogenic signal. The cells were therefore induced with dexamethasone (1 μM) alone for two days or in combination with darglitazone (0.5 μM) throughout the experiment to get a low differentiation rate. MEF on the other hand develop into adipocytes quite inefficiently and were thus induced with the more powerful adipogenic combination of dexamethasone (1 μM), insulin (5 μg/ml) isobutylmethylxanthine (0.115 mg/ml) and darglitazone (0.5 μM) for two days, insulin and darglitazone for two days and darglitazone alone all through the experiment. […]

Test [1] concerns mouse embryonic fibroblasts (MEF). Kind of test: Adipocyte differentiation of retrovirus infected mouse embryonic fibroblasts (MEF), Oil Red O staining. The conditions noted are these: Oil Red O at day 13 post-induction. It is filed as cell-based. The text has this:
The fibroblastic 3T3-L1 preadipocyte cells have the capability to differentiate to adipocytes when given the proper hormonal stimulation, usually a combination of dexamethasone, insulin and isobutylmethylxanthine, as opposed to NIH/3T3 where overexpression of adipocyte differentiating factors is necessary to get adipocyte development. Untransformed mouse embryonic fibroblasts (MEF) can also be forced to adipocyte differentiation using the same adipogenic factors; the efficiency is however much lower than with 3T3-L1. […] Stable clones were selected 2-3 days using puromycin (2 μg/ml) and surviving cells were grown to confluence. 3T3-L1 cells differentiate to adipocytes at high rate when all adipogenic inducers are present and this could make it difficult discriminate the effect of an additional adipogenic signal. The cells were therefore induced with dexamethasone (1 μM) alone for two days or in combination with darglitazone (0.5 μM) throughout the experiment to get a low differentiation rate. […] At day 13 post-induction adipate differentiation was measured by Oil Red O staining. […]

Test [2] has as its system NIH/3T3 mouse fibroblasts. The experiment in a line: Adipocyte differentiation of retrovirus infected NIH/3T3 fibroblasts, Oil Red O staining. In kind it is cell-based. To be noted: Oil Red O after 10 days. From the text: A classical way of studying the adipocyte differentiating potential of a gene is to overexpress it in either uncommitted NIH/3T3 fibroblasts or in 3T3-L1 preadipocytes using retroviral transfer. The adipocyte differentiating potential can then be assayed by microscopic examination and by staining with lipophilic dyes such as Oil Red O. O/E-1 was thus expressed in mouse NIH/3T3 fibroblasts, 3T3-L1 preadipocytes and mouse embryonic fibroblasts to investigate its adipocyte differentiating potential. cDNAs encoding mouse O/E-1, human O/E-1 and mouse PPARγ2 were cloned in the pBabepuro retrovirus vector. These retrovirus vectors as well as the empty vector were transiently transfected into Phoenix high efficiency packaging cells. Retroviruses containing supernatants were used to infect NIH/3T3 mouse fibroblasts. After puromycin (2 μg/ml) selection for two days, cells were allowed to grow to confluence after which adipogenic inducers were added (DIM, see above), after 10 days cells were stained with the lipophilic dye Oil Red O. As expected PPARγ induced some differentiation of NIH/3T3 mouse fibroblasts into lipid-containing cells that resembled cultured adipocytes in the presence of adipogenic inducers (FIG. 3). […] The ability of human O/E-1 to induce adipocyte differentiation of NIH/3T3 was also tested and found to be similar as that of mouse O/E-1 (Data not shown).

In the case of `Cc1oc(-c2ccccc2)nc1CCC(=O)c1ccc(CC2SC(=O)NC2=O)cc1` (stereo not drawn) [darglitazone], the “overall rate of adipocyte differentiation” value in the test with 3T3-L1 preadipocytes is “overall rate of differentiation was enhanced”. The adipocyte differentiation entry in test [1] (human O/E-1 infected MEF) is given as “even further enhanced differentiation”. The “number of cells that developed into adipocytes” value in test [1] (vector infected MEF, compared with vehicle) is on record as “increased the number of cells that developed into adipocytes”. In test [2] (PPARγ2 infected NIH/3T3, 0.5 μM present throughout with adipogenic inducers (DIM)), the “differentiation into lipid-containing adipocyte-like cells” value is “dramatic increase”. Besides, the development to adipocytes result in test [2] (mouse O/E-1 infected NIH/3T3, adipogenic inducers (DIM), 0.5 μM) is reported as “greatly enhanced”. Besides, the differentiation into adipocytes result in test [2] (vector infected NIH/3T3, adipogenic inducers (DIM), 0.5 μM) is “No differentiation was observed”.
